In US20210101879A1, “AMYLOID PROTEIN-SELECTIVE BACE INHIBITORS (ASBIs) FOR ALZHEIMER?S DISEASE” (The Regents of the University of California, priority 2018, published 2021):
“And” between values parts separate entries of the source, which are not always exact repeats. Identical values can stand only once. Like-named read-outs stand apart in the source and are kept apart here.

How the values were obtained:
[1] = molecular target: BACE-1 (Homo sapiens (Human), UniProt P56817); experiment: cell-free BACE enzyme assay with P5-P5′ substrate; type: biochemical
Method: For the assay, 4 μL of assay buffer was added to each well, followed by 2 μL of BACE-1 diluted in assay buffer to 7.5 ng/μL. Then, 2 μL of inhibitor, at concentrations along an 11 pt. two-fold dilution series starting at 0.5 μM, were added to appropriate wells and incubated for 30 minutes at room temperature. Afterwards, 2 μL of P5-P5′ BACE-1 substrate, diluted to 50 μM in assay buffer, were added to each well, after which the signal generated was read every 30 minutes at 25° C. for 2 hr.

[2] = PAMPA; type: in vitro ADME
[3] = molecular target: Cathepsin D (CatD) (Homo sapiens (Human), UniProt P07339); experiment: Cathepsin-D assay; type: biochemical
Method: For the assay, 4 μL of assay buffer was added to each well, followed by 2 μL of Cathepsin D (CatD) diluted in assay buffer to 5 ng/μL. Then, 2 μL of inhibitor, prepared to get a testing concentration of 20 μM, were added to appropriated wells and incubated for 30 minutes at room temperature. Afterwards, 2 μL of CatD substrate, diluted to 50 μM in assay buffer, were added to each well, after which the signal generated was read every 30 minutes at 25° C. for 1 hr. Signals shown in FIG. 6 are representative of readings at 1 hr.

[4] = tested on: CHO-7W cells (stably transfected with human amyloid precursor protein wildtype); experiment: CHO-7W cell assay (AlphaLISA of media); type: cell-based, Chinese hamster; details: treatment for 24 hours
Method: For the assay, 50 μL of CHO-7W cells were added to each well at 4×10^5 cells/mL. Then, 50 μL of inhibitor, prepared for tested concentrations, were added to appropriated wells and incubated for 24 hours at 37° C. Afterwards, media from each well is collected and assayed using an AlphaLISA assay for respective analytes.

[5] = pharmacokinetics in mice; type: in vivo
[6] = cell-free, several replicate values per cell, some flagged 's' (flag not defined), read-out: BACE1 IC50

Sequence of BACE-1 (P56817 46-501): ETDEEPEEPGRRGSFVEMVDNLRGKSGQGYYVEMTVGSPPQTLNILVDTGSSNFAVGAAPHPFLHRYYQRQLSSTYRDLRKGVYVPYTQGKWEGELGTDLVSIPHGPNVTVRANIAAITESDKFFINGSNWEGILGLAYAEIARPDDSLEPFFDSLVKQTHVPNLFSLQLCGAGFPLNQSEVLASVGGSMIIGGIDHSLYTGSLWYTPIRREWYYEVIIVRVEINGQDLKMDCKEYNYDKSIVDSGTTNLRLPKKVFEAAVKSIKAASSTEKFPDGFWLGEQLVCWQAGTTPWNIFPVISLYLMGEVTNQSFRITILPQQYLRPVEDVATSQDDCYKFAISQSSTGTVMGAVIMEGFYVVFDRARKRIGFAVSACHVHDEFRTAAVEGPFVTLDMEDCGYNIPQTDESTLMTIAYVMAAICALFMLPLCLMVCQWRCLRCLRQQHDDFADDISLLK
Sequence of Cathepsin D (CatD) (P07339 65-412, species assumed): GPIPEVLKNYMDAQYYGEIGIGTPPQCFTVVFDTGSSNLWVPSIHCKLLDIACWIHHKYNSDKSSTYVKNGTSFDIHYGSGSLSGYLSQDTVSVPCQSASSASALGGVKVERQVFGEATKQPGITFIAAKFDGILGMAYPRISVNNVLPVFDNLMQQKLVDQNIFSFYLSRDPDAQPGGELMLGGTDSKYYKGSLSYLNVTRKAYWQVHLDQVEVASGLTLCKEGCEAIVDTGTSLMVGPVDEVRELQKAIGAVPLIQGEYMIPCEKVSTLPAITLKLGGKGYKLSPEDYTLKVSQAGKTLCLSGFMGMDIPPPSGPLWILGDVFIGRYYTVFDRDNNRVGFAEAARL

| Structure (SMILES) | IC50 [1, 6] | PAMPA [2] | other results |
| --- | --- | --- | --- |
| Cc1cc(C2(c3cccc(F)c3)N=C(N)N(C)C2=S)ccc1OC(F)F (stereo not shown) [FAH-31] | 4340 nM and 3960 nM | 3.07 | – |
| Cc1cc(C2(c3cccc(-c4cccnc4)c3)N=C(N)N(C)C2=O)ccc1OC(F)F (stereo not shown) [FAH-32] | 11 nM and 16 nM and 17 nM | 0.91 and 0.92 | IC50 [3]: > 100000 nM |
| Cc1cc(C2(c3cncnc3)N=C(N)N(C)C2=O)ccc1OC(F)F (stereo not shown) [FAH-33] | > 5000 nM | 0.24 | – |
| Cc1cc(C2(c3cncc(F)c3)N=C(N)N(C)C2=O)ccc1OC(F)F (stereo not shown) [FAH-37] | 1930 nM | 0.54 | – |
| Cc1cc(C2(c3cocn3)N=C(N)N(C)C2=O)ccc1OC(F)F (stereo not shown) [FAH-38] | > 5000 nM | 3.46 | – |
| Cc1cc(C2(c3cccc(F)c3)N=C(N)N(Cc3ccccc3)C2=O)ccc1OC(F)F (stereo not shown) [FAH-42] | – | 2.29 | – |
| Cc1cc(C2(c3cccc(-c4cnco4)c3)N=C(N)N(C)C2=O)ccc1OC(F)F (stereo not shown) [FAH-43] | 140 nM and 230 nM and 490 nM | 0.79 | amyloid-beta (Aβ) [4]: significantly decreased; soluble amyloid precursor protein beta (sAPPβ) [4]: significantly decreased |
| COCc1cccc(C2(c3ccc(OC(F)F)c(C)c3)N=C(N)N(C)C2=O)c1 (stereo not shown) [FAH-44] | – | 0.91 | – |
| Cc1cc(C2(c3ccnc(F)c3)N=C(N)N(C)C2=O)ccc1OC(F)F (stereo not shown) [FAH-46] | 2990 nM | 0.65 | – |
| Cc1cc(C2(c3ccc(OC(F)F)c(C)c3)N=C(N)N(C)C2=O)ccn1 (stereo not shown) [FAH-47] | 3050 nM | 0.46 | – |
| COc1cc(C2(c3ccc(OC(F)F)c(C)c3)N=C(N)N(C)C2=O)ccn1 (stereo not shown) [FAH-48] | 4350 nM | 0.68 | – |
| COCc1cc(C2(c3ccc(OC(F)F)c(C)c3)N=C(N)N(C)C2=O)ccn1 (stereo not shown) [FAH-53] | – | 0.26 | – |
| CC#Cc1cc(C2(c3ccc(OC(F)F)c(C)c3)N=C(N)N(C)C2=O)ccn1 (stereo not shown) [FAH-57] | 440 nM and 510 nM | 0.61 | amyloid-beta (Aβ) [4]: significantly decreased; soluble amyloid precursor protein beta (sAPPβ) [4]: significantly decreased |
| Cc1cc(C2(C3CCCCC3)N=C(N)N(C)C2=O)ccc1OC(F)F (stereo not shown) [FAH-59] | 720 nM | 4.43 | – |
| CNCc1cccc(C2(c3ccc(OC(F)F)c(C)c3)N=C(N)N(C)C2=O)c1 (stereo not shown) [FAH-62] | – | 0.35 | – |
| CNCCc1cccc(C2(c3ccc(OC(F)F)c(C)c3)N=C(N)N(C)C2=O)c1 (stereo not shown) [FAH-63] | – | 0.38 | – |
| Cc1cc(C2(c3cccc(C4CNC4)c3)N=C(N)N(C)C2=O)ccc1OC(F)F (stereo not shown) [FAH-64] | – | 0.35 | – |
| Cc1cc(C2(c3cccc(-c4cncc(F)c4)c3)N=C(N)N(C)C2=O)ccc1OC(F)F (stereo not shown) [FAH-66] | 18 nM and 12 nM and 19 nM and 47 nM and 28 nM and 36 nM | 1.15 | amyloid-beta (Aβ) [4]: significantly decreased; soluble amyloid precursor protein beta (sAPPβ) [4]: significantly decreased |
| Cc1cc(C2(C3CCN(C)CC3)N=C(N)N(C)C2=O)ccc1OC(F)F (stereo not shown) [FAH-67] | – | 0.20 | – |
| CCCC1CC(C2(c3ccc(OC(F)F)c(C)c3)N=C(N)N(C)C2=O)CCN1C (stereo not shown) [FAH-68] | 16100 nM | 0.20 | – |
| Cc1cc(C2(C3CCCC(c4ncco4)C3)N=C(N)N(C)C2=O)ccc1OC(F)F (stereo not shown) [FAH-69] | 110 nM and 210 nM and 120 nM and 430 nM | 0.92 | – |
| Cc1cc(C2(c3cccc(-c4ccnnc4)c3)N=C(N)N(C)C2=O)ccc1OC(F)F (stereo not shown) [FAH-72] | 140 nM and 100 nM and 49 nM and 87 nM and 93 nM | 0.37 | – |
| Cc1cc(C2(c3cccc(-c4ccccc4)c3)N=C(N)N(C)C2=O)ccc1OC(F)F (stereo not shown) [FAH-73] | 530 nM and 690 nM | 5.11 | – |
| CN1C(=O)C(c2ccc(OC(F)F)cc2)(c2cccc(-c3cncnc3)c2)N=C1N (stereo not shown) [FAH-74] | 4.2 nM and 2.5 nM and 5.7 nM and 7.5 nM and 15 nM and 23 nM | 0.36 | IC50 ([1]; cell-free BACE assay): 13 nM |

| Structure (SMILES) | IC50 [1, 6] | PAMPA [2] | other results |
| --- | --- | --- | --- |
| Cc1cccc(C2(c3cccc(-c4cccnc4)c3)N=C(N)N(C)C2=O)c1 (stereo not shown) [FAH-75] | 210 nM and 240 nM and 150 nM and 420 nM | 0.62 | – |
| Cc1cc(C2(c3cccc(-c4ccco4)c3)N=C(N)N(C)C2=O)ccc1OC(F)F (stereo not shown) [FAH-82] | 780 nM and 450 nM and 2400 nM | – | – |
| CN1C(=O)C(c2cnc(OC(F)F)nc2)(c2cccc(F)c2)N=C1N (stereo not shown) [FAH-83] | 2910 nM and 2330 nM and 9190 nM | 0.51 and 0.53 | – |
| CN1C(=O)C(c2ccc(OCF)cc2)(c2cccc(-c3cncnc3)c2)N=C1N (stereo not shown) [FAH-84] | – | 0.30 | – |
| Cc1cc(C2(C3CCCC(c4cncnc4)C3)N=C(N)N(C)C2=O)ccc1OC(F)F (stereo not shown) [FAH-85] | 220 nM | 0.51 2 peaks | – |
| Cc1cc(C2(c3cccc(-c4cnccn4)c3)N=C(N)N(C)C2=O)ccc1OC(F)F (stereo not shown) [FAH-86] | – | 0.68 | IC50 [3]: > 50000 nM |
| Cc1cc(C2(c3cccc(-c4ccncn4)c3)N=C(N)N(C)C2=O)ccc1OC(F)F (stereo not shown) [FAH-87] | 300 nM and 340 nM and 420 nM and 290 nM | 0.58 | – |
| CC1CCN(c2cccc(C3(c4ccc(OC(F)F)cc4)N=C(N)N(C)C3=O)c2)C1 (stereo not shown) [FAH-88] | 840 nM and 600 nM and 2130 nM | 4.53 2-peaks | – |
| Cc1cc(C2(c3cccc(NC(=O)N(C)C)c3)N=C(N)N(C)C2=O)ccc1OC(F)F (stereo not shown) [FAH-99] | 150 nM and 210 nM | 0.38 | – |
| CN1C(=O)C(C)(c2cccc(-c3cncnc3)c2)N=C1N (stereo not shown) [FAH-100] | 2310 nM and 4850 nM | 0.27 | – |
| CC#Cc1cncc(-c2cccc(C3(C(C)C)N=C(N)N(C)C3=O)c2)n1 (stereo not shown) [FAH-101] | – | 1.71 | – |
| CCCc1cncc(-c2cccc(C3(C(C)C)N=C(N)N(C)C3=O)c2)n1 (stereo not shown) [FAH-106] | 2180 nM and 3160 nM | 2.36 | – |
| Cc1ncc(-c2cccc(C3(C4CC4)N=C(N)N(C)C3=O)c2)cn1 (stereo not shown) [FAH-107] | 8870 nM and 4930 nM and 6880 nM | 0.40 | – |
| Cc1cc(C2(c3cccc(-c4cnc(N)nc4)c3)N=C(N)N(C)C2=O)ccc1OC(F)F (stereo not shown) [FAH-110] | 47 nM and 38 nM | 0.46 | IC50 ([1]; cell-free BACE assay): 43 nM |
| Cc1cc(C2(c3cccc(-c4cncc(C5CC5)c4)c3)N=C(N)N(C)C2=O)ccc1OC(F)F (stereo not shown) [FAH-111] | 80 nM and 110 nM | solubility issue | – |
| CN1C(=O)C(c2cccc(-c3cncnc3)c2)(c2ccc3occc3c2)N=C1N (stereo not shown) [FAH-116] | 270 nM and 260 nM | 0.52 | – |
| CN1C(=O)C(c2cccc(-c3cncnc3)c2)(c2ccc3c(c2)CCO3)N=C1N (stereo not shown) [FAH-117] | 1370 nM and 410 nM | 0.32 | – |
| CN1C(=O)C(c2cc(-c3cncc(F)c3)ccc2F)(C2CC2)N=C1N (stereo not shown) [FAH-126] | – | – | BACE1 IC50 (μM) ([1]; cell-free, several replicate values per cell, some flagged 's' (flag not defined)): inactive |
| Cc1cc(C2(c3ccc(F)c(-c4cncnc4)c3)N=C(N)N(C)C2=O)ccc1OC(F)F (stereo not shown) [FAH-127, 2-amino-5-(4-(difluoromethoxy)-3-methylphenyl)-5-(4-fluoro-3-(pyrimidin-5-yl)phenyl)-3-methyl-3,5-dihydro-4H-imidazol-4-one] | 14 nM and 13 nM and 5 nM and 24.6 nM | 0.53 and 0.49 and 0.50 | IC50 ([1]; cell-free BACE assay): 13 nM; brain penetrance [5]: good brain-penetrance; brain peak ([5]; at 1 hour): ~3000 (range 600-6000) ng/g |
| CN1C(=O)C(c2cccc(-c3cncnc3)c2)(c2ccc3c(c2)OCCO3)N=C1N (stereo not shown) [FAH-135] | 210 nM | 0.26 | – |
| CN1C(=O)C(c2cccc(-c3cncnc3)c2)(c2ccc3c(c2)OCO3)N=C1N (stereo not shown) [FAH-136] | 250 nM | 0.30 | – |
| CN1C(=O)C(c2cccc(-c3cncnc3)c2)(c2ccc3c(c2)OC(F)(F)O3)N=C1N (stereo not shown) [FAH-137] | 460 nM | 0.59 | – |
| CC#Cc1cncc(-c2cc(C3(c4ccnc(C(F)F)c4)N=C(N)N(C)C3=O)ccc2F)c1 (stereo not shown) [FAH-152] | 20 nM | 0.46 | – |
| Cc1cc(C2(c3cc(-c4cncnc4)ccc3F)N=C(N)N(C)C2=O)ccc1OC(F)F (stereo not shown) [FAH-156] | 200 nM | 0.25 | – |
